The values that follow come from patent publication US5258300A, “Method of inducing lysine overproduction in plants” (Molecular Genetics Research and Development Limited …, priority 1988, dated 1993).

The test system of test [1] is seedlings of self-pollinated 327. The test is described as follows: AEC resistance in seedlings, progeny of 327. In kind it is in vivo, Nicotiana tabacum SR1. The following applies: Nicotiana tabacum, 336 h, two weeks postplating, read-out: Avg. Root Length. On the procedure: (§1) Tobacco plant 327 flowered and was allowed to self-pollinate and produce seed. Mature, dry seed was collected, surface-sterilized with 10% bleach, and rinsed well with sterile water. Seeds were plated (50 seeds per plate, two plates per treatment) on gridded germination plates (1/4 MS salts, 2.5 gm/l Gelrite) containing AEC at 0, 1, 10, 30, 100 and 300 μM AEC. Seeds from self-pollinated 101 were treated identically as controls. All seeds germinated in 3-4 days. After 10 days, the number of green seedlings on each plate was counted. After two weeks, the seedlings were gently pulled from the Gelrite and root lengths were measured.

Test [2] has as its system leaf disks from plant 327. The test is described as follows: Leaf disk AEC screen, dap A+ plant 327. The class given is cell-based, Nicotiana tabacum SR1. On the procedure:
(§2) Plant tissue was initially screened for expression of the introduced dap A gene by evaluating resistance to the lysine analog S(2-aminoethyl)cysteine(AEC). AEC is a potent inhibitor of dihydrodipicolinic acid synthase of plants, but the bacterial DHDPS is much less sensitive to it. Leaf disks were prepared from surface-sterilized leaves as described in the transformation protocol. The disks were placed, (four disks per plate, two plates per treatment) on shooting medium supplemented with 1 mM L-arginine and AEC at 0, 0.1, 0.2 or 0.4 mM. Plates containing shooting medium supplemented with 75 μg/ml kanamycin were included for each plant tested to check the selectable marker. After one week at 26° C. in the light, the individual leaf disks were weighed and the average fresh weight and standard deviation were determined for each treatment.

Test [3] concerns seedlings of self-pollinated 101. The test is described as follows: AEC resistance in seedlings, progeny of 101. The following applies: Nicotiana tabacum, 336 h, two weeks postplating, read-out: Avg. Root Length. The class given is in vivo, Nicotiana tabacum SR1. The procedure: as §1
For test [4], the system named is leaf disks from water control plant 101. The test is described as follows: Leaf disk AEC screen, water control plant 101. The class given is cell-based, Nicotiana tabacum SR1. The procedure: as §2
In test [5] the target is T1, DHDP synthase activity in NT-SR1 leaves (Nicotiana tabacum, UniProt Q42948).
T1 construct: Young leaves of 327 and seed-grown NT-SR1 plants were extracted as follows; from tissue; host or cells: young leaves of seed-grown NT-SR1 plants, 40-66% ammonium sulfate fraction of the leaf extract
T1 sequence (Q42948 34-359): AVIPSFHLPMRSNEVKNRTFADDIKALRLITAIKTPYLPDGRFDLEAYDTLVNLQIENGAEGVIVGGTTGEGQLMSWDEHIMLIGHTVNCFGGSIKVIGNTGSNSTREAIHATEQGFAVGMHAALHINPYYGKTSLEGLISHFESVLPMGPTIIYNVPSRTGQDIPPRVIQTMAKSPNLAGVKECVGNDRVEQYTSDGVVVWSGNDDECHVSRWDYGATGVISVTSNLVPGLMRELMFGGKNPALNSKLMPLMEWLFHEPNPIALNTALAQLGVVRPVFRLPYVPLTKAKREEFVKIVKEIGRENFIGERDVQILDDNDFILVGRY
Briefly: DHDP synthase activity (o-aminobenzaldehyde assay) in leaf extracts of seed-grown NT-SR1. In kind it is biochemical. The note with it: NT-SR1 leaf extract. On the procedure:
(§3) Young leaves of 327 and seed-grown NT-SR1 plants were extracted as follows. One to two grams of deribbed leaves were ground at 4° C. in 2 ml extraction buffer (0.1M potassium phosphate (pH 7.5 at 4° C.), 2 mM EDTA, 1 mM β-mercaptoethanol, 10 mM sodium pyruvate) in the presence of 0.14 gm polyvinylpyrrolidone per gram of tissue. The extract was filtered through Miracloth (Calbiochem) and then centrifuged for 10 minutes at 8000×g (4° C.). The supernatant was slowly brought to 40% saturation by adding finely ground solid ammonium sulfate at 4° C. with gentle stirring. The precipitate was removed by centrifugation. The supernatant was brought to 66% ammonium sulfate saturation and the 40-66% precipitate was collected by centrifugation as before. The pellet was resuspended in column buffer (50 mM Tris-HCl (pH 7.5 at 4° C.), 1 mM EDTA, 10 mM sodium pyruvate, 10% glycerol) and passed through a Sephadex G-25 column (Sigma) to desalt.
(§4) Protein concentrations were determined by the dye-binding method of Bradford (REF) using bovine serum albumin fraction V powder in distilled water as the standard.
(§5) Dihydrodipicolinic acid synthase activity was monitored using the o-aminobenzaldehyde (ABA) assay (Yugari et al., J. Biol. Chem., 240, 4710-4716 (1965)). […] The pink color was allowed to develop for one hour at 25° C. and then the optical density was measured at 520 nm.

Test [6] relates to Dihydrodipicolinic acid synthase. The note with it: in vitro; cited from earlier work.
Test [7] has as its system DHDP synthase activity in the leaves of 327. Briefly: DHDP synthase activity (o-aminobenzaldehyde assay) in leaf extracts of 327. In kind it is biochemical, Nicotiana tabacum SR1 (E. coli dap A gene). The following applies: 327 leaf extract. The procedure:
as §3, §4, §5

The structures appear in SMILES notation.

As for `NCCSCC(N)C(=O)O` (stereo not drawn) [AEC, S(2-aminoethyl)cysteine], the activity at 1 µM in test [1] (AEC 1 μM) worked out at 111%; in test [3] (AEC 1 μM), 46%. In addition, the figures for the activity at 3 µM in test [1] (AEC 3 μM) and in test [3] (AEC 3 μM) were 87% and 33%, respectively. Further, the activity at 10 µM in test [1] (AEC 10 μM) was 51%; in test [3] (AEC 10 μM) it was 27%. Moreover, the values for the activity at 30 µM in test [1] (AEC 30 μM) and in test [3] (AEC 30 μM) were 46% and 18%, respectively. Besides, the activity at 100 µM turned out to be 21% in test [1] (AEC 100 μM); 88% in test [2] (Nicotiana tabacum, foliar, 168 h, AEC 0.1 mM, plant 327 leaf disks, after one week, read-out: Fresh Weight); 0% in test [3] (AEC 100 μM); 32% in test [4] (Nicotiana tabacum, foliar, 168 h, AEC 0.1 mM, plant 101 leaf disks, after one week, read-out: Fresh Weight). In addition, the activity at 200 µM in test [2] (Nicotiana tabacum, foliar, 168 h, AEC 0.2 mM, plant 327 leaf disks, after one week, read-out: Fresh Weight) turned out to be 81%; in test [4] (Nicotiana tabacum, foliar, 168 h, AEC 0.2 mM, plant 101 leaf disks, after one week, read-out: Fresh Weight), 15%. In addition, the activity at 400 µM in test [2] (Nicotiana tabacum, foliar, 168 h, AEC 0.4 mM, plant 327 leaf disks, after one week, read-out: Fresh Weight) amounted to 71%; in test [4] (Nicotiana tabacum, foliar, 168 h, AEC 0.4 mM, plant 101 leaf disks, after one week, read-out: Fresh Weight), 10%. Also, the “Leaf disk growth in the presence of AEC” value in test [2] (putative dap A+ plants) was “remain green and growing”; in test [4] (control plants) it was “strongly inhibited”. For the same compound, the Leaf disk appearance result in test [4] (control plants, medium containing at least 0.2 mM AEC) is “brown and shriveled”.

The term inhibition denotes the change of the read-out against control, counted positive when it falls. Higher therefore signals a response far below the control. For the compound `NCCCC[C@H](N)C(=O)O` [L-lysine], at 100 µM the inhibition in test [5] (100 μM L-lysine) was 87%. Also, the “Inhibition of DHDP synthase activity” value is “no activity could be detected” in test [5] (500 μM L-lysine), “completely resistant” in test [7] (100 μM L-lysine) and 14% in test [7] (500 μM L-lysine). Besides, the “Lower sensitivity of E. coli DHDPS to inhibition by lysine compared to the same enzyme from plants” value in test [6] is given as “at least 200 fold”.
